# “Also recorded” adds a separate entry of the source.
# Columns and labels:
# DYRK3 = DYRK3 (Homo sapiens, UniProt O43781); test: IC50 towards inhibition of various kinases: DYRK3; assay type: biochemical
# CLK3 = CLK3 (Homo sapiens, UniProt P49761); test: IC50 towards inhibition of various kinases: CLK3; assay type: biochemical
# DYRK1A = DYRK1A (Homo sapiens, UniProt Q13627); test: IC50 towards inhibition of various kinases: DYRK1A; assay type: biochemical
# [1] = system: ΔF508 CFTR alveolar macrophages; test: Intracellular Pseudomonas aeruginosa growth (bacterial killing) in ΔF508 CFTR alveolar macrophages, live cell microscopy; assay type: cell-based, mouse; details: ΔF508 CFTR expressing alveolar macrophages, 20 μM, 6 h observation
# Protocol: (§1) FIG. 2. Inhibition of Pseudomonas aeruginosa growth in cftr^−/− and ΔF508 alveolar macrophages by M3 metabolite and derivatives. A comparison of intracellular bacterial growth in single murine alveolar macrophages was carried out using live cell microscopy. Cells were fed DS-Red expressing P. aeruginosa for 30 min (MOI<10). Cells were exposed to M3 metabolite for 20 min prior to exposure to bacteria. Adherent and non-ingested bacteria were then removed by washing and incubation with antibiotics and live alveolar macrophages were observed microscopically for approximately 6 hours.
# (§2) The data are presented as means of fluorescence intensities±SEM. Control conditions summarized data obtained from: WT—2 mice, 38 cells; ΔF508—6 mice, 120 cells; cftr^−/− 4 mice, 87 cells. […] In the presence of M3 metabolite we analysed data from: ΔF508—3 mice, 57 cells; cftr^−/−1 mouse, 67 cells. […]
# CDK1/cyclin B = test: IC50 towards inhibition of various kinases: CDK1/cyclin B; assay type: biochemical
# CK2 = CK2 (Homo sapiens, UniProt P68400); test: IC50 towards inhibition of various kinases: CK2; assay type: biochemical
# CK1δ/ε = test: IC50 towards inhibition of various kinases: CK1δ/ε; assay type: biochemical
# Pseudomonas aeruginosa = test: Growth of P. aeruginosa culture (optical density); assay type: cell-based; details: 37° C.
# Protocol: FIG. 3. Absence of growth inhibition of P. aeruginosa culture by M3 metabolite and derivatives. 1/100 dilution of an overnight culture of P. aeruginosa was introduced in fresh culture medium and cultures were incubated at 37° C. with 20 μM of M3 metabolite or derivatives or 1 μM bafilomycin (negative control). Optical density (600 nm) was measured 2 h and 3.5 h after starting the cultivation, and every 30 min for 2.5 h.
# Pseudomonas aeruginosa DsRed from single colony was grown in gentamicin containing TSB overnight at 37° C. with agitation at 300 RPM. Next day it was started the new culture at 1/100 dilution and certain compound of blocker were added to the tubes. We measured optical density (660 nm) of bacterial culture at every 30 minutes.
# Pim1 = Pim1 (Homo sapiens, UniProt P11309); test: IC50 towards inhibition of various kinases: Pim1; assay type: biochemical
# DYRK2 = DYRK2 (Homo sapiens, UniProt Q92630); test: IC50 towards inhibition of various kinases: DYRK2; assay type: biochemical
# CLK2 = CLK2 (Homo sapiens, UniProt P49760); test: IC50 towards inhibition of various kinases: CLK2; assay type: biochemical
# PfGSK-3 = PfGSK-3 (Plasmodium falciparum, UniProt O77344); test: biochemical; details: read-out: IC50 value towards inhibition of PfGSK-3
# DYRK1B = DYRK1B (Homo sapiens, UniProt Q9Y463); test: IC50 towards inhibition of various kinases: DYRK1B; assay type: biochemical
# GSK-3α/β = test: IC50 towards inhibition of various kinases: GSK-3α/β; assay type: biochemical
# CLK4 = CLK4 (Homo sapiens, UniProt Q9HAZ1); test: IC50 towards inhibition of various kinases: CLK4; assay type: biochemical
# kinase = details: cited from earlier work
# [2] = system: human alveolar macrophages; test: Phagosomal acidification, pHrodo Red BioParticles, plate reader; assay type: cell-based; details: 10 μM, read over 3 h
# Protocol: (1C) Comparative effect of various compounds on phagosomal pH in human alveolar macrophages. Data summary from 3-10 patients for each compound tested at 10 μM. Data was obtained in triplicate for each patient and averaged for all patients with error bars indicating the SEM. Data were normalized to fluorescence changes observed in untreated control cells for each patient before averaging.
# Broncho-alveolar lavage from humans was performed on consenting adults following a protocol approved by The University of Chicago Institutional Review Board. The patients included men and women, smokers and non-smokers, undergoing bronchoscopy for cancer biopsies prior to clinical treatment. […]
# In brief, broncho-alveolar lavage fluid was strained through a 70 μm sterile cell strainer into a 50 ml conical tube centrifuge tube with a maximum broncho-alveolar lavage volume of 40 ml and a minimum volume of 10 ml followed by centrifugation at 1000×g for 5 min at 4° C. […] Cells were counted on Countess® (Invitrogen) with a distribution cut-off of 20-60 μm and cell viability determined by trypan blue exclusion. […]
# After 24 h incubation cells were exposed to pHrodo Red BioParticles® (Life Technologies). Acidification was measured on 96-well plate format with 560 and 580 nm excitation and emission wavelengths at 37° C. in a Synergy MX, BioTek® plate reader. […]
# [3] = system: cftr−/− alveolar macrophages; test: Intracellular Pseudomonas aeruginosa growth (bacterial killing) in cftr−/− alveolar macrophages, live cell microscopy; assay type: cell-based, mouse; details: 20 μM, 6 h observation
# Protocol: as §1, §2
# CLK1 = CLK1 (Homo sapiens, UniProt P49759); test: IC50 towards inhibition of various kinases: CLK1; assay type: biochemical
# CDK9/cyclin T = CDK9/cyclin T (Homo sapiens, UniProt P50750); test: IC50 towards inhibition of various kinases: CDK9/cyclin T; assay type: biochemical
# [4] = system: mouse alveolar macrophages; test: Lysosomes fusion: Rhodamine-110 processing and pHrodo-Red E. coli Bioparticles in murine alveolar macrophages; assay type: cell-based
# Protocol: We added Rhodamine-110 to the cells prior the pHrodo-Red conjugated E. coli Bioparticles® providing simultaneous uptake of both probes into phagosomes. Lysosomes fusion into nascent phagosomes brings proteases including cathepsin and triggers Rhodamine conversion.
# Isolated mouse alveolar macrophages (from cftr^−/− or Δ508F CFTR mice) were cultured adherent on the poly-L-lysine coated glass bottom dishes for 24-48 h. Then they were treated with 10 μM Rhodamine-110 for 20 min at room temperature in the dark with following incubation with 0.1 mg/ml pHrodo-Red conjugated E. coli Bioparticles® for 1 hour at 37° C. […] Then the cells were washed twice with PBS, fixed with 4% PFA. The images were acquired immediately after fixation on Leica SP5 2-photon laser confocal microscope with a 63× (NA1.4) oil objective.
# Isolated mouse macrophages were plated on 96-well plate with a density of 3-6,000 cells (20-60 μm diameter) per well, incubated in complete DMEM (10% FBS, 1% penicillin-streptomycin) at 37° C. under 5% CO2 pressure for 24-48 h. The cells were loaded with 5 μM Rhodamine-110 for 20 min at room temperature in the dark, fed with E. coli Bioparticles® conjugated to pHrodo-Red for 1 h at 37° C.
# Sequence of DYRK3 (O43781 whole entry, species assumed): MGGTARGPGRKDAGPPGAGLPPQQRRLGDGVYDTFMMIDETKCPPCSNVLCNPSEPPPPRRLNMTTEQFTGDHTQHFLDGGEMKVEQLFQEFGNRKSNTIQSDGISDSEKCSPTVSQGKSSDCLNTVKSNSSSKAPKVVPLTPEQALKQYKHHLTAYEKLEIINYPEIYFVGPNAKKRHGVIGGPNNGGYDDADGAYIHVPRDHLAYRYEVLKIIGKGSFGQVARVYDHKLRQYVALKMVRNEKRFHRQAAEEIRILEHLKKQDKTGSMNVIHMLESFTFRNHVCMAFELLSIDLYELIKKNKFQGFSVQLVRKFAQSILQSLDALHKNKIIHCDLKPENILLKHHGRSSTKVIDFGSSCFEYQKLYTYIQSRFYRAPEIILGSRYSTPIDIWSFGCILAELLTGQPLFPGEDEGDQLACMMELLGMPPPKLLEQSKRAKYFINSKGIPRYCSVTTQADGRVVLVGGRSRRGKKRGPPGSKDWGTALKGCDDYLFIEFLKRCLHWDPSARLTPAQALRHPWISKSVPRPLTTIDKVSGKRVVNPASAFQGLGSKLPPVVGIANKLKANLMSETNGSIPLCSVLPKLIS
# Sequence of DYRK2 (Q92630 whole entry, species assumed): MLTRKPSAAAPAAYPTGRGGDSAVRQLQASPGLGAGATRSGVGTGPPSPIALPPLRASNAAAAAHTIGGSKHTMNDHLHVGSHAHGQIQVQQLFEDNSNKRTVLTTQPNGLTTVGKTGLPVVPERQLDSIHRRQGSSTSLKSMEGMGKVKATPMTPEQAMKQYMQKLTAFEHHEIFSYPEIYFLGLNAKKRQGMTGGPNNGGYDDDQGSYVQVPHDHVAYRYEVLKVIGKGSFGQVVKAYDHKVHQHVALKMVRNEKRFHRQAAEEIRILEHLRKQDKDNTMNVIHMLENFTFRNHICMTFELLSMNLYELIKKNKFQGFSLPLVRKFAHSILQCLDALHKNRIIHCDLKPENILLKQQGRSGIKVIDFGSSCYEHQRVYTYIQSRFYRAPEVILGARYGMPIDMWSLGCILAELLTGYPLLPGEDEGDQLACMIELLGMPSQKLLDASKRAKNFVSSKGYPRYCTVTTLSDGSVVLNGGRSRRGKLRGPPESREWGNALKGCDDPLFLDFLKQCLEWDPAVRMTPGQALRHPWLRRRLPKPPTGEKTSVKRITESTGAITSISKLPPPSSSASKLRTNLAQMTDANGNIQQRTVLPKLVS
# Sequence of PfGSK-3 (O77344 1-440): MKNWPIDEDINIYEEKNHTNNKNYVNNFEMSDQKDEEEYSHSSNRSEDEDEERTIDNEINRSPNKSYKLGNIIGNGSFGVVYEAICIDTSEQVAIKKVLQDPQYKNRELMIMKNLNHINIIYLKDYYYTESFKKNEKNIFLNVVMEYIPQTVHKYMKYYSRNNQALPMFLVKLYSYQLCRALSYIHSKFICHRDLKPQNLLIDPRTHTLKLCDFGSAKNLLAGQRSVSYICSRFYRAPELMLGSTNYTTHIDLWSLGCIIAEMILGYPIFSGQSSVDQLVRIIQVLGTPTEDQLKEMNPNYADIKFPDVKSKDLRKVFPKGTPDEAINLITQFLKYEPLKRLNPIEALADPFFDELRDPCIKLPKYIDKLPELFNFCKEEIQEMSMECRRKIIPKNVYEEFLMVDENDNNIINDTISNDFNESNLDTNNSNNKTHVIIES
# Sequence of CK2 (P68400 whole entry): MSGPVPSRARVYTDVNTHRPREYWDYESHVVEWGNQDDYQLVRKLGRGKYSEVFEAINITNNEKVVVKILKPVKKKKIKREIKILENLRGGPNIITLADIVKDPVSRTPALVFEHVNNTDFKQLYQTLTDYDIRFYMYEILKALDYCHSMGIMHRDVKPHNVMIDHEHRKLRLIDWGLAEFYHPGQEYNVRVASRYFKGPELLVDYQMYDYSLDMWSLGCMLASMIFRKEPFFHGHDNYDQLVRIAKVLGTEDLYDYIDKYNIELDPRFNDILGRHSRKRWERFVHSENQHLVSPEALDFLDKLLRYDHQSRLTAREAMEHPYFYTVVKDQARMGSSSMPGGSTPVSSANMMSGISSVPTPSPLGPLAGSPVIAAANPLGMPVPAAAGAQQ
# Sequence of CLK3 (P49761 whole entry, species assumed): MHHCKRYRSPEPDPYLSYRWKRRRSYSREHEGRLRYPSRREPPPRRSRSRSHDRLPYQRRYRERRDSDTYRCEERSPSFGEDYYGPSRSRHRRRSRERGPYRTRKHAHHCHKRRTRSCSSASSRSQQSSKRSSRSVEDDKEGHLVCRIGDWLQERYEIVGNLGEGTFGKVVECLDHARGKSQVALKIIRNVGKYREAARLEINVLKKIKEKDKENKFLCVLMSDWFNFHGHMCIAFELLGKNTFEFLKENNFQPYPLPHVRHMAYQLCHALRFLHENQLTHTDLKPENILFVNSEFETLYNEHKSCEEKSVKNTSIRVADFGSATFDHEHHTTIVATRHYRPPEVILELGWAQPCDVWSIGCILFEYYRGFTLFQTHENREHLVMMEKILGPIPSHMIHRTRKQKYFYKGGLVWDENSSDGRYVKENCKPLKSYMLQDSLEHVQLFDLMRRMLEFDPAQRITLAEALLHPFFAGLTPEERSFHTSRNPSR
# Sequence of Pim1 (P11309 whole entry, species assumed): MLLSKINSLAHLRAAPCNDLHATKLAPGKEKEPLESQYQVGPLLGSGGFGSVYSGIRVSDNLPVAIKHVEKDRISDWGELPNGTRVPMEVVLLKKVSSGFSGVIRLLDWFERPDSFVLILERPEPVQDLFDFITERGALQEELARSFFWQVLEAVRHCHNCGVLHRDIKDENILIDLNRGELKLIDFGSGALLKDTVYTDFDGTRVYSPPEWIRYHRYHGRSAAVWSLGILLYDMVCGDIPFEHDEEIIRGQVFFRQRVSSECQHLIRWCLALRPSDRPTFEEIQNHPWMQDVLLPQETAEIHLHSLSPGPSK
# Sequence of CLK4 (Q9HAZ1 whole entry, species assumed): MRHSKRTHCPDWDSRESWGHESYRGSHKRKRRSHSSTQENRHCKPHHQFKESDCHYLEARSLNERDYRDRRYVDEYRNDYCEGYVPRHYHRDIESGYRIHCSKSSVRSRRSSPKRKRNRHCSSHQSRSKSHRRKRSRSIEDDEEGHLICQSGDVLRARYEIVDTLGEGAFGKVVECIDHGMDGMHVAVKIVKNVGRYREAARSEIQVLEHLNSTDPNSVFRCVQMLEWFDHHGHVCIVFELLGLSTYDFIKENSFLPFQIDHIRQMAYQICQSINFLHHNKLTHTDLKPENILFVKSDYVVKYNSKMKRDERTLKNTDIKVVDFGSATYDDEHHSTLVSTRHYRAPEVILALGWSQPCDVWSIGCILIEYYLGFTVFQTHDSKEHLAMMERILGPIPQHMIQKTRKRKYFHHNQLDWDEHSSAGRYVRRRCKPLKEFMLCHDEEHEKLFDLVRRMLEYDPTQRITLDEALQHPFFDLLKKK
# Sequence of CLK1 (P49759 whole entry): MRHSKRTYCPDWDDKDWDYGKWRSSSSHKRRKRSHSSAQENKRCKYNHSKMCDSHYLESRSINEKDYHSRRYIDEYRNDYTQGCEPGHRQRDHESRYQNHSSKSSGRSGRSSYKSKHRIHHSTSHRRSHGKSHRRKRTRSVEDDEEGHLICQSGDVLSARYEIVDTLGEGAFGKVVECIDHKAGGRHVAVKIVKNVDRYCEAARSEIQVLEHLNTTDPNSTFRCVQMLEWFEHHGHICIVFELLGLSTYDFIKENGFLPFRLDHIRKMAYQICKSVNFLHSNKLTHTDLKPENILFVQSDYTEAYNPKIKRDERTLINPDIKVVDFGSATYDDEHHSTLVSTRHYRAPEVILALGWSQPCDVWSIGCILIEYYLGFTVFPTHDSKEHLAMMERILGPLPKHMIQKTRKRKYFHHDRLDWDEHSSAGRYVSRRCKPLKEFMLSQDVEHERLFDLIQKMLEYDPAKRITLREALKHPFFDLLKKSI
# Sequence of CLK2 (P49760 whole entry, species assumed): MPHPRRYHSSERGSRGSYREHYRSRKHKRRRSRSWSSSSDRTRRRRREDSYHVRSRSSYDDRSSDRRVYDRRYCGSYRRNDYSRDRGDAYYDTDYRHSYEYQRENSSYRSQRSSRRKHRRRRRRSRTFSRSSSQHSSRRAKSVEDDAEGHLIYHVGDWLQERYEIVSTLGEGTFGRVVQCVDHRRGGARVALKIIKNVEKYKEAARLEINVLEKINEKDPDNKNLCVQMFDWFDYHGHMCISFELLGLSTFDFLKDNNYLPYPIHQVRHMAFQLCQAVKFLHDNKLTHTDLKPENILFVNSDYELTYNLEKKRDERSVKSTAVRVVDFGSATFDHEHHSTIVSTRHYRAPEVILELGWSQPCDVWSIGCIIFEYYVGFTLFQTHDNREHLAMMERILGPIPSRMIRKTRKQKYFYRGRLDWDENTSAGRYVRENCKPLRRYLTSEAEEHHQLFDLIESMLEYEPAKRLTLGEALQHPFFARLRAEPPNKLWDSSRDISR
# Sequence of DYRK1B (Q9Y463 whole entry, species assumed): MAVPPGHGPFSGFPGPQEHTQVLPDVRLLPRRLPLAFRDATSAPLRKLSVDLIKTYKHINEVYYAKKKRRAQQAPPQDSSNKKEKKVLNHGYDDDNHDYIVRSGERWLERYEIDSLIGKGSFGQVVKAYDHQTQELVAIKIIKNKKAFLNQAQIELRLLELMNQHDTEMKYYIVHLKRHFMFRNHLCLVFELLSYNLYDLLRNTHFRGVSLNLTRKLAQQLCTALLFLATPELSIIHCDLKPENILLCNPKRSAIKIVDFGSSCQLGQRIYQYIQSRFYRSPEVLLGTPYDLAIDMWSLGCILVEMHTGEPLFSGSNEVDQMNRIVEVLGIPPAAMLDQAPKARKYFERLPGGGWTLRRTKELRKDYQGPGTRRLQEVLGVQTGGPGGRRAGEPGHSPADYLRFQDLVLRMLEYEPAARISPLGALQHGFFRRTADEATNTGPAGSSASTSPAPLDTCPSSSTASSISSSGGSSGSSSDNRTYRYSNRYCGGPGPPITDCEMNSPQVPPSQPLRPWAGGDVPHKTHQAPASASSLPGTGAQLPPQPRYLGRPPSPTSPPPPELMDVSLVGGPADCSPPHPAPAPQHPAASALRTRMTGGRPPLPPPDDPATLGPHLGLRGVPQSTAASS
smiles,measurement,setting,value
"CC(C)n1cnc2c(NCc3ccccc3)nc(N[C@@H](CO)C(=O)O)nc21 [Compound 6, (2S)-2-[[6-(benzylamino)-9-isopropyl-purin-2-yl]amino]-3-hydroxy-propanoic acid]",melting point,,120 to 130 °C
"CC[C@@H](Nc1nc(NCc2ccccc2)c2ncn(C(C)C)c2n1)C(=O)O [Metabolite M3, (2R)-2-[[9-isopropyl-6-(phenylmethylamino)purin-2-yl]amino]butanoic acid]",IC50,DYRK3,> 100 µM
same,IC50,CLK3,52 µM
same,IC50,DYRK1A,19 µM
same,rescue of bacterial killing (intracellular P. aeruginosa growth),[1],at least as efficient as with (R)-roscovitine
same,IC50,CDK1/cyclin B,11 µM
same,IC50,CK2,> 100 µM
same,IC50,CK1δ/ε,21 µM
same,prevention of bacterial growth in culture (optical density),Pseudomonas aeruginosa; 20 μM,unable to prevent bacterial growth
same,IC50,Pim1,> 100 µM
same,IC50,DYRK2,23 µM
same,IC50,CLK2,14 µM
same,IC50,PfGSK-3,> 100 µM
same,IC50,DYRK1B,22 µM
same,IC50,GSK-3α/β,> 100 µM
same,IC50,CLK4,19 µM
same,kinase inhibiting properties,kinase,does not exhibit kinase inhibiting properties
same,phagosomal acidification over phagosomal pH observed in untreated cells,[2],significantly enhance acidification
same,rescue of bacterial killing (intracellular P. aeruginosa growth),[3],at least as efficient as with (R)-roscovitine
same,IC50,CLK1,18 µM
same,IC50,CDK9/cyclin T,> 10 µM
same,lysosomes fusion / rhodamine-110 processing by lysosomal proteases,"[4]; FIG. 4B, 10 μM, mouse alveolar macrophages, versus control cells, listed as M3 metabolite",increased; also recorded: enhanced lysosomes fusion
CO/C1=C\C(C)=C\[C@@H](C)[C@@H](O)[C@@H](C)C/C(C)=C/C=C/[C@H](OC)[C@@H]([C@@H](C)[C@@H](O)[C@H](C)[C@@]2(O)C[C@@H](O)[C@H](C)[C@@H](C(C)C)O2)OC1=O [bafilomycin],prevention of bacterial growth in culture (optical density),Pseudomonas aeruginosa; 1 μM,unable to prevent bacterial growth
"CC[C@H](CO)Nc1nc(NCc2ccccc2)c2ncn(C(C)C)c2n1 [(R)-roscovitine, 2-(R)-(1-ethyl-2-hydroxyethylamino)-6-benzylamino-9-isopropylpurine, reference compound]",IC50,DYRK3,59 µM
same,rescue of bacterial killing (intracellular P. aeruginosa growth),[1],significantly rescues bacterial killing
same,prevention of bacterial growth in culture (optical density),Pseudomonas aeruginosa; 20 μM,unable to prevent bacterial growth
same,IC50,DYRK2,2.3 µM
same,phagosomal acidification over phagosomal pH observed in untreated cells,[2],significantly enhance acidification
same,rescue of bacterial killing (intracellular P. aeruginosa growth),[3],significantly rescues bacterial killing
same,fluorescence from pHrodo-Red conjugated E. coli Bioparticles phagocytosis,"[4]; FIG. 4A, alveolar macrophages, compared to control",decreased
same,fluorescence resulting from rhodamine-110 processing by lysosomal proteases,"[4]; FIG. 4A, confocal microscopy, compared to control without compound",increased

# From patent US10561661B2, “Purine derivative compounds for medical use” (MANROS THERAPEUTICS, priority 2014, dated 2020)
